Source: PMC10248867, “Receptor-like cytoplasmic kinase ScRIPK in sugarcane regulates disease resistance and drought tolerance in Arabidopsis” (Frontiers in Plant Science, 2023)

Columns and labels:
Experiment in all cases: X-ray crystal structure, […] A
Assay type in all cases: binding
[1] = target: T1, ScRIPK-KD (ScRIPK kinase domain) (Saccharum hybrid cultivar, UniProt A0ACD6BAX3, S187A/T188A); conditions: crystallised in 0.1 M HEPES pH 7.5, 4.3 M sodium chloride, 291 K; active site
T1 construct: gene NCGR_LOCUS634; kinase domain 72-378 of 425 aa; PRSF-duet vector, Ni-NTA purified from E. coli BL21(DE3); wild type autophosphorylated at T250, S253, T254; one kinase domain per asymmetric unit
T1 sequence (A0ACD6BAX3 entry or part of it S187A/T188A): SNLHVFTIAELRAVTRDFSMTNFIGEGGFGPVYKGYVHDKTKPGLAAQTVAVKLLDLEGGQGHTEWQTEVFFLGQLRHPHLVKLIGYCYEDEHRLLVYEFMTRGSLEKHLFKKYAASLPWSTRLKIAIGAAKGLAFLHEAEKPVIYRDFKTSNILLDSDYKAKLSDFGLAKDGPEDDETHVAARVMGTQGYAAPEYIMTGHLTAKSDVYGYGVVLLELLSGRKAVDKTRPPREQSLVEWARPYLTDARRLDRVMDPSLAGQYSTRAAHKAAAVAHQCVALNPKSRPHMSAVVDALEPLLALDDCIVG

[2] = target: T2, ScRIPK-KD (ScRIPK kinase domain) (Saccharum hybrid cultivar, UniProt A0ACD6BAX3, K58R); conditions: crystallised in 0.1 M HEPES pH 7.5, 4.3 M sodium chloride, 291 K; active site
T2 construct: gene NCGR_LOCUS634; kinase domain 72-378 of 425 aa; PRSF-duet vector, Ni-NTA purified from E. coli BL21(DE3); wild type autophosphorylated at T250, S253, T254; one kinase domain per asymmetric unit
T2 sequence (A0ACD6BAX3 entry or part of it K58R): as the sequence (A0ACD6BAX3 entry or part of it S187A/T188A) above, with K53R, A182S, A183T counted along it

[3] = target: T3, ScRIPK-KD (ScRIPK kinase domain) (Saccharum hybrid cultivar, UniProt A0ACD6BAX3); conditions: Mg2+ bound; crystallised in 0.1 M HEPES pH 7.5, 40% v/v PEG 400, 291 K; active site
T3 construct: gene NCGR_LOCUS634; kinase domain 72-378 of 425 aa; PRSF-duet vector, Ni-NTA purified from E. coli BL21(DE3); wild type autophosphorylated at T250, S253, T254; one kinase domain per asymmetric unit
T3 sequence (A0ACD6BAX3 entry or part of it): as the sequence (A0ACD6BAX3 entry or part of it S187A/T188A) above, with A182S, A183T counted along it

SMILES	X-ray crystal structure, 1.95 A [1]	X-ray crystal structure, 1.68 A [2]	X-ray crystal structure, 2.10 A [3]
Nc1ncnc2c1ncn2[C@@H]1O[C@H](COP(=O)(O)OP(=O)(O)O)[C@@H](O)[C@H]1O [ADP]	In the ScRIPK-KD S253A|T254A mutant structure, Y169 and E170–M172 formed a deep cavity		
Nc1ncnc2c1ncn2[C@@H]1O[C@H](COP(=O)(O)OP(=O)(O)OP(=O)(O)O)[C@@H](O)[C@H]1O [ATP]		the mutant protein ScRIPK-KD K124R was purified and crystallized with ATP	The ScRIPK-ATP protein complex crystal was successfully obtained in the reservoir solution
